# Test results: patent US8609658B2, “N,N-dialkylalkylenyl esters, compositions thereof, and methods for use thereof” (Allergan, Inc., priority 2011, dated 2013)
# Test: Aqueous stability in formulation vehicle (% substrate remaining)
# Format: physicochemical
# Conditions: 0.0005% w/w (5 ppm) compound in aqueous formulation vehicle, pH 6
% Substrate Remaining (7 days/25° C.),% Substrate Remaining (7 days/40° C.),% Substrate Remaining (28 days/25° C.),Structure (SMILES)
101.2%,92%,94.4%,CCN(CC)CCCC(C)OC(=O)COc1cccc(NC(=O)c2cc(-c3cccc(F)c3)ccc2F)c1 (stereo not drawn)
95.5%,49.2%,82.6%,CC[N+](C)(CC)CCCOC(=O)COc1cccc(NC(=O)c2cc(-c3cccc(F)c3)ccc2F)c1
92%,78.8%,78%,CN(C)c1ccc(OC(=O)COc2cccc(NC(=O)c3cc(-c4cccc(F)c4)ccc3F)c2)cc1
61.5%,18%,12%,O=C(COc1cccc(NC(=O)c2cc(-c3cccc(F)c3)ccc2F)c1)Oc1ccc(CN2CCOCC2)cc1
